Experimental data published in paper PMC5896266, “Development of Matrix Metalloproteinase-2 Inhibitors for Cardioprotection” (Frontiers in Pharmacology, 2018).
Like-named read-outs stand apart in the source and are kept apart here.

How the values were obtained:
MMP-13 = MMP-13 (Homo sapiens, UniProt P45452); assay: MMP-13 inhibition (inhibitory profile); type: biochemical; conditions: Table 2
Protocol: (§1) The compounds were measured for MMP-1, 2, 9, 13 to determine their inhibitory profile. Efficiency Index amplifies the two major required effects, selectivity against MMP-1 and the inhibitory activity.

[1] = molecular target: T1, MMP-2 enzyme isolated from rat heart (Rattus norvegicus, UniProt P33436); assay: Gelatin zymography on cardiac MMP-2; type: biochemical; conditions: for inhibition at 100 µM: cardiac MMP-2, gelatin zymography, read-out: Inhibition (%)±SEM at 100 μM final MMP inhibitor concentration; for EC50: concentration labelled EC50 in Supplementary Figure 4, doses calculated according to IC doses in vitro
T1 construct: we used full-length, active MMP-2 enzymes isolated from healthy young adult rat hearts; from tissue; host or cells: rat heart homogenate (healthy young adult rats)
T1 sequence (P33436 110-662): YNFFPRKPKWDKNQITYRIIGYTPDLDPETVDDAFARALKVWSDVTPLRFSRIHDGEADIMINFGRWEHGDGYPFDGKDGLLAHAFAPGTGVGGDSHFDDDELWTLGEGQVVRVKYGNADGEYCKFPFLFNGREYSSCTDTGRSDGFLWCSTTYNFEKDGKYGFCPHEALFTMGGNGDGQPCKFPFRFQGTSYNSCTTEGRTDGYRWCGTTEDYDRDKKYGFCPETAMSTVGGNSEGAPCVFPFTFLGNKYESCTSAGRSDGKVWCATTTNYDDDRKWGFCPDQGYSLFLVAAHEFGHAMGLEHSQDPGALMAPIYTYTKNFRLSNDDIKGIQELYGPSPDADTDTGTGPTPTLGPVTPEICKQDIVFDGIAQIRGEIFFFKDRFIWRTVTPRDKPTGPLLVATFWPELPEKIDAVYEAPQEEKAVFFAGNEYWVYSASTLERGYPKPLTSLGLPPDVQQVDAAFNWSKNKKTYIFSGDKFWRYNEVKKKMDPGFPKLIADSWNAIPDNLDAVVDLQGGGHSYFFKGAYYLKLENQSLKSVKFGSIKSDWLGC
Protocol: Gelatin zymography was performed as described previously (Kupai et al., [2010]; Bencsik et al., [2017]). MMP-2 was isolated from rat heart homogenates as follows: 50 μg protein/lane were loaded and separated by electrophoresis under non-reducing conditions on an 8% SDS-polyacrylamide gels copolymerized with 2 mg/ml gelatin from porcine skin (Sigma-Aldrich; St. Louis, MO). After electrophoresis, gels were washed in 2.5% Triton-X 100 with gentle agitation and then incubated for 20 h at 37°C in zymography development buffer (50 mM Tris-HCl, pH 7.5, containing 5 mM CaCl2, 200 mM NaCl) in the presence or abscence of the MMP inhibitor compounds. Zymographic gels were stained in a 0.05% Coomassie Brilliant Blue R-250 solution followed by destaining, and then zymograms were scanned. MMP activity was detected as a colorless transparent zone on a blue background and the clear bands in the gel were quantified by densitometry using the Quantity One software (Bio-Rad, Hercules, CA). The obtained density values were measured and percentage of inhibition values were then calculated.
To confirm the MTS screen results, we tested the potential MMP inhibitor molecules on MMP-2 enzyme isolated from rat heart in vitro. Therefore, we applied the MMPIs at 1 and 100 μM final concentration in the enzyme's development buffer (Table 3).
After the chemical optimization of the novel MMP inhibitor lead candidates, we determined their IC50 values by using gelatin zymography. During zymographic analysis, we used full-length, active MMP-2 enzymes isolated from healthy young adult rat hearts. Subsequently, the cardio-cytoprotective effects of the selected candidates having the lowest IC50 values to MMP-2 were tested in cultured neonatal cardiac myocytes subjected to simulated I/R injury. Cardiac myocyte cell culture assay allowed a relatively high throughput biological efficacy testing (Gorbe et al., [2010]) of the selected lead candidates in several dose ranges at different levels of inhibition of MMP-2 activity.

MMP-9 = MMP-9 (Homo sapiens, UniProt P14780); assay: MMP-9 inhibition (inhibitory profile); type: biochemical; conditions: Table 2
Protocol: as §1

MMP-1 [2] = molecular target: T2, MMP-1 (Homo sapiens, UniProt P03956); assay: MMP-1 inhibition (inhibitory profile); type: biochemical; conditions: Table 2
T2 sequence (P03956 100-469): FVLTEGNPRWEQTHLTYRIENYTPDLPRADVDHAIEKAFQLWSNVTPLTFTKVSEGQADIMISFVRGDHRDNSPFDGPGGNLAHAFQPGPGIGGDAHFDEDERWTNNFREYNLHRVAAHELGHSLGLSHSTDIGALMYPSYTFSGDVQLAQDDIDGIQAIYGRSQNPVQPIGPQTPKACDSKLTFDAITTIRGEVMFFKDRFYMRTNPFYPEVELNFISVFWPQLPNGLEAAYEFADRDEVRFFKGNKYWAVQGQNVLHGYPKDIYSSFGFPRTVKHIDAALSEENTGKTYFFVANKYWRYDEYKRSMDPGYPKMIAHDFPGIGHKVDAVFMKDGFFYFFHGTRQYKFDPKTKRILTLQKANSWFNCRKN
Protocol: as §1

[3] = molecular target: T3, Human MMP-2 catalytic domain (Homo sapiens, UniProt P08253, DEL222-396); assay: Fluorometric MMP-2 inhibition assay (MTS), catalytic domain; type: biochemical
T3 construct: Human MMP-2 catalytic domain (residues 110-221, 397-455); made in house
Protocol: In vitro MMP-2 activity was then measured, using a fluorometric assay in a 384 well format. Human MMP-2 catalytic domain (residues 110-221, 397-455) (Feng et al., [2000]) was expressed in E. coli in form of inclusion bodies. The protein was refolded and then purified by means of Ni-NTA affinity and anion exchange chromatography. Inhibition assays were carried out in 50 mM Tris, 5 mM CaCl2, 300 mM NaCl, 20 μM ZnSO4, pH = 7.5 buffer. For inhibition studies the catalytic domain of the enzyme was pre-incubated with varying amount of inhibitor for 30 min. […] After 1 h incubation at 37°C the fluorescence was detected using a Wallac 1420 Victor2 microplate reader at 320 nm/405 nm Ex/Em wavelength. As an alternative substrate we also used 5-FAM-Pro-Leu-Gly-Leu-Dap(QXL™ 520)-Ala-Arg-NH2, where the fluorescence was detected at 485 nm/520 nm. For each inhibitor candidate, the percentage of inhibition was determined in duplicate experiments at six inhibitor concentrations, chosen to observe a 5–95% range of inhibition.
Since hydroxamic acids are reported as the primary zinc-binding motif, we intended to select such a library from the AMRI 200,000 member non-exclusive compound repository as a starting point of our drug discovery efforts. Since only a few compounds were available in the repository as hydroxamic acids and the conversion of acids to hydroxamic acids were not applicable to HT parallel synthesis, we decided first to select free acids from the AMRI's compound collection. […] The selected acids were screened in a fluorescent assay using a recombinant human MMP-2 catalytic fragment and a synthetic peptide substrate. […] The hydroxamic acid pairs of the previously measured acids were then tested.

MMP-1 [4] = molecular target: T2, MMP-1; conditions: Figure 1, known MMP-2 inhibitors; cited from earlier work
MMP-2 = conditions: Figure 1, known MMP-2 inhibitors; cited from earlier work
[5] = Table 1, acids vs hydroxamic acids, catalytic fragment

MMP-9, sequence (P14780 94-707, species assumed): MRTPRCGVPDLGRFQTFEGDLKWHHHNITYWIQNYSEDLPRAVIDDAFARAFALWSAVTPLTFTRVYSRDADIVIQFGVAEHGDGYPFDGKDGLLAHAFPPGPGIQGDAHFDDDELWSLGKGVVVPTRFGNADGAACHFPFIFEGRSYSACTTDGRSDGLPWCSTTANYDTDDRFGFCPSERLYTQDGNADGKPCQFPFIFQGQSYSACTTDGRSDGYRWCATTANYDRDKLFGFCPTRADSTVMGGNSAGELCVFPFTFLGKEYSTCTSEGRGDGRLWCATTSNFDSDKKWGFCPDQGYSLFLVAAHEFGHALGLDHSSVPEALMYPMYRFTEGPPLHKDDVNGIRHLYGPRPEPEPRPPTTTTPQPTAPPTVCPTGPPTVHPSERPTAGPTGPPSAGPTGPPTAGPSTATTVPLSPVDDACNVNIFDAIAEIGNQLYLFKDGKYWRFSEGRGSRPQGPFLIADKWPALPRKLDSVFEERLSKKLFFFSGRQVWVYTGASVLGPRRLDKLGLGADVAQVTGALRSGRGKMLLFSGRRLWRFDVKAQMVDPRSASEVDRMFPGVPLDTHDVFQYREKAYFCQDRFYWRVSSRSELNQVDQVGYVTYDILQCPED
T3 sequence (P08253 with tags, fused parts or gaps DEL222-396 limits assumed): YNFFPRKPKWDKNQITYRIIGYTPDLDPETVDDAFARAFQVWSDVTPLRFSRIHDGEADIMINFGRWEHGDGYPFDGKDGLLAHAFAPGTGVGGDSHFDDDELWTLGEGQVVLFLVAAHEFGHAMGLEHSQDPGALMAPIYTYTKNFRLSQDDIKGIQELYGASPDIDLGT

| Structure (SMILES) | IC50 (MMP-13) | inhibition at 100 µM [1] | EC50 [1] | IC50 (MMP-9) | IC50 (MMP-1 [2]) | IC50 ([3]; Table 2) | IC50 [3, 5] | IC50 (MMP-1 [4]) | IC50 (MMP-2) |
| --- | --- | --- | --- | --- | --- | --- | --- | --- | --- |
| O=C(O)c1csc(CN(CCC(c2ccccc2)c2ccccc2)Cc2ccccc2F)n1 [AMRI-103A] | – | – | – | – | – | – | 7.6 µM | – | – |
| CC1(C)OCC(C(CS(=O)(=O)c2ccc(Oc3ccc(OC(F)(F)F)cc3)cc2)N(O)C=O)O1 (stereo not drawn) [ABT-518] | – | – | – | – | – | – | – | 8.9 µM | 0.0008 µM |
| O=C(NO)c1csc(CN(Cc2ccc(F)cc2)Cc2ccc(OCc3ccccc3)cc2)n1 [AMRI-101H] | – | – | – | – | – | – | 12 µM | – | – |
| O=C(O)c1csc(CN(Cc2cccc(Cl)c2)Cc2cccc(C(F)(F)F)c2)n1 [AMRI-102A] | – | – | – | – | – | – | 6.2 µM | – | – |
| O=C(NO)c1csc(CN(Cc2cccc(Cl)c2)Cc2cccc(C(F)(F)F)c2)n1 [AMRI-102H] | – | – | – | – | – | – | 11 µM | – | – |
| O=C(NO)c1csc(CN(CCC(c2ccccc2)c2ccccc2)Cc2ccccc2F)n1 [AMRI-103H] | – | – | – | – | – | – | 17.6 µM | – | – |

Second part, led by results:

| IC50 (MMP-13) | inhibition at 100 µM [1] | EC50 [1] | IC50 (MMP-9) | IC50 (MMP-1 [2]) | IC50 ([3]; Table 2) | IC50 [3, 5] | Structure (SMILES) | IC50 (MMP-1 [4]) | IC50 (MMP-2) |
| --- | --- | --- | --- | --- | --- | --- | --- | --- | --- |
| 1.24 µM | 100% | 9 µM | 8.8 µM | 47 µM | 8 µM | – | O=C(O)c1csc(CN(Cc2ccc(F)cc2)Cc2ccc(OCc3ccncc3)cc2)n1 [MMPI-1248] | – | – |
| 4.7 µM | 11.1 ± 1.58% | – | – | 6.8 µM | 25 µM | – | O=C(O)c1csc(CN(Cc2ccc(OCc3ccccc3)cc2)Cc2cccc(F)c2)n1 [MMPI-1133] | – | – |
| 8 µM | 100% | – | ≥ 500 µM | 240 µM | 90 µM | – | O=C(O)c1csc(CN(Cc2ccc(OCc3ccccc3)cc2)Cc2cccnc2)n1 [MMPI-1253] | – | – |
| 1.76 µM | 47 ± 19.1% | – | 10 µM | 26 µM | 25 µM | – | O=C(O)c1csc(CN(Cc2ccc(OCc3ccccc3)cc2)C(c2ccccc2)c2ccccc2)n1 [MMPI-1155] | – | – |
| 2.5 µM | 100% | 17.7 µM | 37 µM | 51 µM | 5.7 µM | – | O=C(O)c1csc(CN(Cc2ccc(F)cc2)Cc2ccc(OCc3cccnc3)cc2)n1 [MMPI-1260] | – | – |
| 1.5 µM | 100% | – | ≥ 500 µM | 115 µM | 54 µM | – | O=C(O)c1csc(CN(Cc2ccncc2)Cc2ccc(OCc3ccccc3)cc2)n1 [MMPI-1252] | – | – |
| 2.6 µM | 81.1 ± 3.88% | – | 39 µM | 12 µM | 20 µM | – | O=C(O)C(c1ccccc1)N(Cc1ccc(OCc2ccccc2)cc1)Cc1cccc(F)c1 (stereo not drawn) [MMPI-1140] | – | – |
| 3 µM | 100% | 32 µM | 20 µM | 17 µM | 30 µM | – | O=C(O)c1csc(CN(Cc2ccc(F)cc2)Cc2ccc(-c3ccccc3)cc2)n1 [MMPI-1254] | – | – |
| 0.28 µM | 100% | – | 8 µM | 16 µM | 35 µM | – | O=C(O)c1c[nH]c(CN(Cc2ccc(F)cc2)Cc2ccc(OC(c3ccccc3)c3ccccc3)cc2)n1 [MMPI-1245] | – | – |
| 1.6 µM | 100% | 18 µM | 15 µM | – | – | 3.4 µM | O=C(O)c1csc(CN(Cc2ccc(F)cc2)Cc2ccc(OCc3ccccc3)cc2)n1 [MMPI-1157] | – | – |
| 3.3 µM | 100% | 16 µM | 100 µM | 33 µM | 15 µM | – | Cc1ccc(CN(Cc2ccc(OCc3ccccc3)cc2)Cc2nc(C(=O)O)c[nH]2)cc1 [MMPI-1247] | – | – |
